Source: PubChem BioAssay AID248 (DTP/NCI, 2004)
Several values for one entry are separate records, joined by “and”; a condition that tells them apart may be missing. Identical values can stand only once. Inconclusive results and toxic doses are left out. Rule as the data show it: active = T/C of 150% or more; inactive = T/C below 125%.

System: L1210 leukemia ip in BDF1 mice, survival T/C
Experiment: NCI In Vivo Anticancer Drug Screen. Data for tumor model L1210 Leukemia (intraperitoneal) in B6D2F1 (BDF1) mice
Conditions: endpoint: mean survival time, higher = longer survival
How it was run: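 Transplantable tumor model; survival measured in treated vs vehicle control mice. Value = treated/control.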

[1] = dose: 100.0 mg/kg/injection, schedule: Q01DX001 (ip), vehicle: other
[2] = dose: 100.0 mg/kg/injection, schedule: Q04DX002 (ip), vehicle: Klucel (hydroxypropylcellulose) (HPC)
[3] = dose: 200.0 mg/kg/injection, schedule: Q01DX001 (ip), vehicle: other
[4] = dose: 200.0 mg/kg/injection, schedule: Q04DX002 (ip), vehicle: Klucel (hydroxypropylcellulose) (HPC)
[5] = dose: 400.0 mg/kg/injection, schedule: Q01DX001 (ip), vehicle: other
[6] = dose: 400.0 mg/kg/injection, schedule: Q04DX002 (ip), vehicle: Klucel (hydroxypropylcellulose) (HPC)
[7] = dose: 100.0 mg/kg/injection, schedule: Q04DX003 (ip), vehicle: saline
[8] = dose: 200.0 mg/kg/injection, schedule: Q04DX003 (ip), vehicle: saline
[9] = dose: 400.0 mg/kg/injection, schedule: Q04DX003 (ip), vehicle: saline
[10] = dose: 100.0 mg/kg/injection, schedule: Q04DX003 (ip), vehicle: Klucel (hydroxypropylcellulose) (HPC)
[11] = dose: 200.0 mg/kg/injection, schedule: Q04DX003 (ip), vehicle: Klucel (hydroxypropylcellulose) (HPC)
[12] = dose: 400.0 mg/kg/injection, schedule: Q04DX003 (ip), vehicle: Klucel (hydroxypropylcellulose) (HPC)
[13] = dose: 10.0 mg/kg/injection, schedule: Q01DX009 (ip), vehicle: saline
[14] = dose: 20.0 mg/kg/injection, schedule: Q01DX009 (ip), vehicle: saline
[15] = dose: 100.0 mg/kg/injection, schedule: Q01DX009 (ip), vehicle: Klucel (hydroxypropylcellulose) (HPC)
[16] = dose: 200.0 mg/kg/injection, schedule: Q01DX009 (ip), vehicle: Klucel (hydroxypropylcellulose) (HPC)
[17] = dose: 400.0 mg/kg/injection, schedule: Q01DX009 (ip), vehicle: Klucel (hydroxypropylcellulose) (HPC)

Measured: T/C

Cc1ncc(/C=N/O)n1Cc1ccccc1
inactive: [1] 97 % of control and 90 % of control | [2] 98 % of control | dose: 100.0 mg/kg/injection, schedule: Q04DX002 (ip), vehicle: other 94 % of control and 96 % of control | dose: 100.0 mg/kg/injection, schedule: Q04DX003 (ip), vehicle: other 97 % of control | [3] 94 % of control and 97 % of control | [4] 94 % of control | dose: 200.0 mg/kg/injection, schedule: Q04DX002 (ip), vehicle: other 99 % of control and 105 % of control | dose: 200.0 mg/kg/injection, schedule: Q04DX003 (ip), vehicle: other 97 % of control and 100 % of control | [5] 93 % of control and 91 % of control | [6] 105 % of control | dose: 400.0 mg/kg/injection, schedule: Q04DX002 (ip), vehicle: other 99 % of control and 92 % of control | dose: 400.0 mg/kg/injection, schedule: Q04DX003 (ip), vehicle: other 89 % of control and 90 % of control

O=C1NC(=O)C(=O)N1
inactive: [7] 96 % of control | [8] 96 % of control | [9] 86 % of control

CC12CC3(C)CC(Cl)(C1)CC(Cl)(C2)C3
inactive: [2] 90 % of control | [4] 102 % of control | [6] 119 % of control

CN(C)C(=O)c1ccc(O)cc1
inactive: [10] 104 % of control | [11] 92 % of control | [12] 97 % of control

NC(CCl)=NCC1C2CC3CC(C2)CC1C3 (stereo not drawn)
inactive: [13] 101 % of control | dose: 10.0 mg/kg/injection, schedule: Q04DX002 (ip), vehicle: saline 121 % of control | [14] 116 % of control | dose: 20.0 mg/kg/injection, schedule: Q04DX002 (ip), vehicle: saline 110 % of control | dose: 40.0 mg/kg/injection, schedule: Q04DX002 (ip), vehicle: saline 110 % of control

Cc1cc(Oc2ccc(Cl)cc2NC(=O)Nc2cccc(C(F)(F)F)c2)cc(S(=O)(=O)O)c1Cl
inactive: dose: 25.0 mg/kg/injection, schedule: Q01DX009 (ip), vehicle: saline sonified 101 % of control | dose: 50.0 mg/kg/injection, schedule: Q01DX009 (ip), vehicle: saline sonified 98 % of control | dose: 100.0 mg/kg/injection, schedule: Q01DX009 (ip), vehicle: saline sonified 90 % of control

C/C(=N\NC(=O)c1ccccc1)c1ccc(-c2ccccc2)cc1
inactive: [15] 94 % of control | [16] 105 % of control | [17] 94 % of control

CC1=C/C(=N/N(C)C)CC(C)C1 (stereo not drawn)
inactive: dose: 12.5 mg/kg/injection, schedule: Q01DX009 (ip), vehicle: saline 96 % of control | dose: 25.0 mg/kg/injection, schedule: Q01DX009 (ip), vehicle: saline 102 % of control | dose: 50.0 mg/kg/injection, schedule: Q01DX009 (ip), vehicle: saline 95 % of control | [7] 100 % of control | [8] 109 % of control | [9] 112 % of control

COC(=O)CCC(C)[N+](=O)[O-] (stereo not drawn)
inactive: dose: 100.0 mg/kg/injection, schedule: Q01DX009 (ip), vehicle: saline 112 % of control | dose: 200.0 mg/kg/injection, schedule: Q01DX009 (ip), vehicle: saline 104 % of control | dose: 400.0 mg/kg/injection, schedule: Q01DX009 (ip), vehicle: saline 98 % of control

FC(F)(F)c1ccc(Cl)c(NC2=NCCCS2)c1
inactive: [13] 107 % of control | [14] 97 % of control | dose: 40.0 mg/kg/injection, schedule: Q01DX009 (ip), vehicle: saline 96 % of control | dose: 75.0 mg/kg/injection, schedule: Q01DX009 (ip), vehicle: saline 95 % of control | [15] 96 % of control | [10] 97 % of control | [16] 97 % of control | [11] 95 % of control | [12] 94 % of control

CC(=O)CC(OC(=O)c1cc([N+](=O)[O-])cc([N+](=O)[O-])c1)(C(F)(F)F)C(F)(F)F
inactive: dose: 6.25 mg/kg/injection, schedule: Q01DX009 (ip), vehicle: Klucel (hydroxypropylcellulose) (HPC) 93 % of control | dose: 12.5 mg/kg/injection, schedule: Q01DX009 (ip), vehicle: Klucel (hydroxypropylcellulose) (HPC) 88 % of control | dose: 25.0 mg/kg/injection, schedule: Q01DX009 (ip), vehicle: Klucel (hydroxypropylcellulose) (HPC) 88 % of control

O=C(O)c1cc(=O)n(CCCn2c(=O)cc(C(=O)O)[nH]c2=O)c(=O)[nH]1
inactive: dose: 100.0 mg/kg/injection, schedule: Q04DX002 (ip), vehicle: saline with Tween-80 93 % of control | dose: 200.0 mg/kg/injection, schedule: Q04DX002 (ip), vehicle: saline with Tween-80 101 % of control | dose: 400.0 mg/kg/injection, schedule: Q04DX002 (ip), vehicle: saline with Tween-80 89 % of control

O=C(CCl)Nc1cc(Cl)ccc1N1CCCC1
inactive: dose: 12.5 mg/kg/injection, schedule: Q01DX009 (ip), vehicle: acetone 100 % of control | dose: 25.0 mg/kg/injection, schedule: Q01DX009 (ip), vehicle: acetone 90 % of control | dose: 50.0 mg/kg/injection, schedule: Q01DX009 (ip), vehicle: acetone 90 % of control

Cc1nc(N)[nH]c(=O)c1CCCNc1ccc(CCC2(CCl)OCCO2)cc1
inactive: dose: 50.0 mg/kg/injection, schedule: Q01DX Z (ip), vehicle: carboxymethylcellulose (CMC) 98 % of control | dose: 100.0 mg/kg/injection, schedule: Q01DX Z (ip), vehicle: carboxymethylcellulose (CMC) 101 % of control | dose: 200.0 mg/kg/injection, schedule: Q01DX Z (ip), vehicle: carboxymethylcellulose (CMC) 101 % of control | dose: 400.0 mg/kg/injection, schedule: Q01DX Z (ip), vehicle: carboxymethylcellulose (CMC) 90 % of control

Cc1ccccc1N=Nc1c(O)n(-c2ccccc2C)c(=S)n(-c2ccccc2)c1=O
inactive: dose: 75.0 mg/kg/injection, schedule: Q01DX003 (ip), vehicle: Klucel (hydroxypropylcellulose) (HPC) 88 % of control | dose: 150.0 mg/kg/injection, schedule: Q01DX003 (ip), vehicle: Klucel (hydroxypropylcellulose) (HPC) 104 % of control | dose: 300.0 mg/kg/injection, schedule: Q01DX003 (ip), vehicle: Klucel (hydroxypropylcellulose) (HPC) 86 % of control

COC(=O)CCC(=O)c1cc(OC)c2cc3ccccc3cc2c1OC
inactive: [1] 96 % of control | [3] 96 % of control | [5] 100 % of control

CCn1nnnc1-c1ccc(Cl)cc1
inactive: dose: 100.0 mg/kg/injection, schedule: Q04DX003 (ip), vehicle: saline with Tween-80 98 % of control | dose: 200.0 mg/kg/injection, schedule: Q04DX003 (ip), vehicle: saline with Tween-80 98 % of control | dose: 400.0 mg/kg/injection, schedule: Q04DX003 (ip), vehicle: saline with Tween-80 98 % of control

O=C(c1ccccc1)c1ccc(Cl)c(Cl)c1
inactive: [10] 98 % of control | [11] 89 % of control | [12] 93 % of control

O=C(O)c1ccc(NC(Nc2ccc(C(=O)O)cc2)C(=O)c2ccccc2)cc1
inactive: dose: 100.0 mg/kg/injection, schedule: Q01DX001 (ip), vehicle: saline 95 % of control | dose: 200.0 mg/kg/injection, schedule: Q01DX001 (ip), vehicle: saline 89 % of control | dose: 400.0 mg/kg/injection, schedule: Q01DX001 (ip), vehicle: saline 101 % of control

O=C(NC(=S)N1CC1)c1ccccc1
inactive: dose: 100.0 mg/kg/injection, schedule: Q04DX002 (sc), vehicle: olive oil, sesame oil, peanut oil 100 % of control | dose: 200.0 mg/kg/injection, schedule: Q04DX002 (sc), vehicle: olive oil, sesame oil, peanut oil 103 % of control | dose: 400.0 mg/kg/injection, schedule: Q04DX002 (sc), vehicle: olive oil, sesame oil, peanut oil 100 % of control

O=C(Nc1nccs1)Nc1ccccc1Cl
inactive: [15] 96 % of control | [2] 91 % of control | [16] 91 % of control | [4] 98 % of control | [17] 96 % of control | [6] 107 % of control

O=C(NC(=O)c1ccccc1)Nc1cccc2ccccc12
inactive: dose: 100.0 mg/kg/injection, schedule: Q04DX002 (ip), vehicle: gum acacia 97 % of control | dose: 200.0 mg/kg/injection, schedule: Q04DX002 (ip), vehicle: gum acacia 90 % of control | dose: 400.0 mg/kg/injection, schedule: Q04DX002 (ip), vehicle: gum acacia 90 % of control

Cc1cccc(Cl)c1NC(=S)Nc1cccc(C(F)(F)F)c1
inactive: [15] 102 % of control | [16] 102 % of control | [17] 96 % of control
